Data as given in ChEMBL document CHEMBL1201862, “PubChem BioAssay data set” (2004).
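Grown in 96-well plates, cells were treated for 48 hours with each compound at five concentrations. Insufficient inhibition: endpoint recorded as highest concentration tested. The concentration for 50% growth inhibition is given as GI50.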 Activity calls are given as the source filed them. No stated cut-off is given here; in the data, active = GI50 up to about 1.1 µM and inactive = higher.

Legend:
Assay in all cases: DTP human tumour cell line panel, 48 h
ACHN = test system: ACHN
OVCAR-5 = test system: OVCAR-5
SF-268 = test system: SF-268
EKVX = test system: EKVX
NCI-H226 = test system: NCI-H226
OVCAR-3 = test system: OVCAR-3
SK-OV-3 = test system: SK-OV-3
M14 = test system: M14
786-0 = test system: 786-0
CCRF-CEM = test system: CCRF-CEM
SNB-75 = test system: SNB-75
DU-145 = test system: DU-145
MDA-N = test system: MDA-N
T47D = test system: T47D
U-251 = test system: U-251
SK-MEL-5 = test system: SK-MEL-5
MCF7 = test system: MCF7
BT-549 = test system: BT-549
MDA-MB-435 = test system: MDA-MB-435
A498 = test system: A498

Measured: GI50

CN1/C(=C\N=O)C(C)(C)N(O)C1(C)C
inactive: ACHN > 100 µM | OVCAR-5 > 100 µM | SF-268 > 100 µM | EKVX > 100 µM | NCI-H226 > 100 µM | OVCAR-3 > 100 µM | SK-OV-3 > 100 µM | M14 > 100 µM | 786-0 > 100 µM | CCRF-CEM > 100 µM | SNB-75 > 100 µM | DU-145 > 100 µM | MDA-N > 100 µM | T47D > 100 µM | U-251 > 100 µM | SK-MEL-5 > 100 µM | MCF7 > 100 µM | BT-549 > 100 µM | MDA-MB-435 > 100 µM

CC(C)(C)c1ccc(C(C)(C)C)c(N2C(=O)[C@@H]3[C@@H]4C=C[C@@H](C4)[C@]3(C)C2=O)c1
inactive: ACHN 21.5 µM | OVCAR-5 86.5 µM | SF-268 27.9 µM | EKVX 47.3 µM | A498 16.5 µM | NCI-H226 26.9 µM | OVCAR-3 13.9 µM | SK-OV-3 > 100 µM | M14 19.5 µM | 786-0 17.4 µM | CCRF-CEM 7.38 µM | DU-145 20.2 µM | MDA-N 14 µM | T47D 18.4 µM | U-251 18.7 µM | SK-MEL-5 30.8 µM | MCF7 22.4 µM | BT-549 22.4 µM | MDA-MB-435 15.5 µM

CSC1=Nc2ccccc2-c2nc3ccccc3cc2C1
inactive: ACHN > 100 µM | OVCAR-5 > 100 µM | SF-268 > 100 µM | EKVX > 100 µM | A498 > 100 µM | NCI-H226 > 100 µM | OVCAR-3 > 100 µM | SK-OV-3 > 100 µM | M14 > 100 µM | 786-0 > 100 µM | CCRF-CEM > 100 µM | DU-145 > 100 µM | MDA-N > 100 µM | T47D 25.9 µM | U-251 > 100 µM | SK-MEL-5 > 100 µM | MCF7 > 100 µM | BT-549 > 100 µM | MDA-MB-435 > 100 µM

Nn1c(=S)[nH]nc(/C=C/c2c(O)ccc3ccccc23)c1=O
inactive: ACHN 4.93 µM | OVCAR-5 7.08 µM | SF-268 2.96 µM | EKVX 2.75 µM | A498 16.9 µM | OVCAR-3 3.13 µM | SK-OV-3 11 µM | M14 5.71 µM | 786-0 5.46 µM | CCRF-CEM 1.92 µM | DU-145 12.1 µM | MDA-N 12.3 µM | T47D 3.97 µM | U-251 8.22 µM | SK-MEL-5 10.2 µM | MCF7 2.72 µM | BT-549 5.43 µM | MDA-MB-435 13.2 µM

Cc1c(-c2ccccc2)[nH]n(C2=NCCN2)c1=O
inactive: ACHN > 100 µM | OVCAR-5 > 100 µM | SF-268 > 100 µM | EKVX > 100 µM | A498 > 100 µM | NCI-H226 52.8 µM | OVCAR-3 > 100 µM | SK-OV-3 > 100 µM | M14 > 100 µM | 786-0 > 100 µM | CCRF-CEM > 100 µM | SNB-75 30.4 µM | MDA-N > 100 µM | T47D > 100 µM | U-251 > 100 µM | SK-MEL-5 > 100 µM | MCF7 > 100 µM | BT-549 > 100 µM | MDA-MB-435 > 100 µM

O=C(Cn1c2ccc(Br)cc2c2nc3ccccc3nc21)NNC(=O)NC1CCCCC1
inactive: ACHN > 100 µM | OVCAR-5 52.8 µM | SF-268 45.5 µM | EKVX 65.8 µM | A498 > 100 µM | OVCAR-3 63.5 µM | SK-OV-3 50.7 µM | M14 40.3 µM | 786-0 44.3 µM | CCRF-CEM 26.7 µM | SNB-75 23.2 µM | DU-145 24.9 µM | MDA-N 44 µM | T47D 33 µM | U-251 30.1 µM | SK-MEL-5 > 100 µM | MCF7 49 µM | BT-549 > 100 µM | MDA-MB-435 32.7 µM

COc1cc(C)cc(C(=O)OCc2ccccc2)c1C1=C(Cl)C(=O)C(Cl)=CC1=O
inactive: ACHN > 10 µM | OVCAR-5 > 10 µM | SF-268 > 10 µM | EKVX > 10 µM | NCI-H226 > 10 µM | OVCAR-3 4.6 µM | SK-OV-3 > 10 µM | M14 > 10 µM | 786-0 > 5.71 µM | CCRF-CEM 2.08 µM | SNB-75 > 10 µM | DU-145 > 10 µM | MDA-N > 10 µM | T47D 6.44 µM | U-251 > 10 µM | SK-MEL-5 > 10 µM | MCF7 > 9.42 µM | BT-549 > 10 µM | MDA-MB-435 > 10 µM
